Data taken from ChEMBL document CHEMBL4425090, “Antimalarial Oxoprotoberberine Alkaloids from the Leaves of Miliusa cuneata” (J Nat Prod, 2016).

Legend:
Plasmodium falciparum [1] = assay: Antiplasmodial activity against multidrug-resistant Plasmodium falciparum K1 infected in human RBC incubated for 18 to 20 hrs by microdilution radioisotope method; format: functional, organism-based
KB = assay: Cytotoxicity against human KB cells by sulforhodamine B assay; format: functional, cell-based
Plasmodium falciparum [2] = assay: Antiplasmodial activity against chloroquine/antifolate-sensitive Plasmodium falciparum TM4 infected in human RBC incubated for 18 to 20 hrs by microdilution radioisotope method; format: functional, organism-based
Vero = assay: Cytotoxicity against African green monkey Vero cells by sulforhodamine B assay; format: cell-based; conditions: Chlorocebus sabaeus

Structure (SMILES)	IC50 (Plasmodium falciparum [1]) [µM]	IC50 (KB) [µM]	IC50 (Plasmodium falciparum [2]) [µM]	IC50 (Vero) [µM]
COc1cc(OC)c2c(=O)c(OC)c(-c3ccc(O)c(OC)c3)oc2c1	27.9	> 47.8	31.5	> 47.8
COc1cc2c(c(OC)c1O)CCn1c-2cc2ccc(O)c(O)c2c1=O	32.4	> 47.8	41.4	> 47.8
COc1cc(/C=C/C(=O)NCCc2ccc(O)cc2)ccc1O [N-TRANS-FERULOYL TYRAMINE]	54.9	> 47.8	> 47.8	> 47.8
COc1cc2c(c(OC)c1O)CCN1C(=O)c3c(ccc(O)c3O)C[C@@H]21	26.1	> 47.8	38.1	> 47.8
COc1cc(O)c2c(=O)c(OC)c(-c3ccc(O)c(OC)c3)oc2c1 [PACHYPODOL]	> 47.8	> 47.8	> 47.8	> 47.8
O=C(/C=C/c1ccc(O)cc1)NCCc1ccc(O)cc1 [N-P-COUMAROYL TYRAMINE]	> 47.8	> 47.8	> 47.8	> 47.8
COc1cc(-c2oc3cc(OC)c(OC)c(O)c3c(=O)c2OC)ccc1O [CHRYSOSPLENOL B]	12.4	> 47.8	39.5	> 47.8
COc1cc([C@H]2OC[C@H]3[C@@H]2CO[C@@H]3c2cc(OC)c(O)c(OC)c2)cc(OC)c1O [SYRINGARESINOL]	> 47.8	> 47.8	> 47.8	> 47.8
O=C(/C=C/c1ccc(O)c(O)c1)NCCc1ccc(O)cc1	23.8	> 47.8	> 47.8	> 47.8
COc1cc2c(c(O)c1OC)CCn1c-2cc2ccc(O)c(O)c2c1=O	26.3	> 47.8	19.3	> 47.8
CC1(C)N=C(N)N=C(N)N1c1ccc(Cl)cc1 [CYCLOGUANIL]	3.2	–	–	–
CCc1nc(N)nc(N)c1-c1ccc(Cl)cc1 [PYRIMETHAMINE]	31	–	–	–
COc1cccc2c1C(=O)c1c(O)c3c(c(O)c1C2=O)C[C@@](O)(C(=O)CO)C[C@@H]3O[C@H]1C[C@H](N)[C@H](O)[C@H](C)O1 [DOXORUBICIN]	–	1	–	–
COc1cc2c(c(OC)c1OC)CCN1C(=O)c3c(ccc(O)c3O)C[C@@H]21	29.1	> 47.8	> 47.8	> 47.8
COc1cc(O)c2c(=O)c(OC)c(-c3ccc4c(c3)OCO4)oc2c1	> 47.8	> 47.8	> 47.8	> 47.8
CC(C)=CCC/C(C)=C/[C@H]1OC(=O)C[C@]12C[C@H](O)C=CC2=O	9.1	10.2	11.1	13.5
COc1cc2c(c(OC)c1OC)CCn1c-2cc2ccc(O)c(O)c2c1=O	10.8	> 47.8	25.6	> 47.8
Cc1c2ccncc2c(C)c2c1[nH]c1ccccc12 [ELLIPTECINE]	–	–	–	0.4
